Test results published in patent US20150044702A1, “MEANS AND METHODS FOR ASSESSING DISORDERS RELATED TO IMPAIRED IRON […] ENERGY METABOLISM” (BASF SE, priority 2012, published 2015).
Marks after values point to notes of the source that are not given here.

Experiment: 28-day rat study, plasma metabolite profiling: markers for Duodenum iron deficiency;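 note: rats given the compounds once a day across 28 days, plasma from fasted animals profiled by GC-MS and LC-MS, separate control groups of five rats per sex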
Conditions: for Cholic acid, treatment ratio versus control / Choline plasmalogen (C18,C20:4), treatment ratio versus control / Citrate, treatment ratio versus control / Creatinine, treatment ratio versus control / DAG (C18:1,C18:2), treatment ratio versus control / Hippuric acid, treatment ratio versus control / Indole-3-propionic acid, treatment ratio versus control / Methionine, treatment ratio versus control / Proline, treatment ratio versus control / Serine, treatment ratio versus control / TAG (C16:0,C18:1,C18:3), treatment ratio versus control / TAG (C18:1,C18:2), treatment ratio versus control / TAG (C18:2,C18:2), treatment ratio versus control / TAG (C18:2,C18:3), treatment ratio versus control / TAG (DAG-Fragment), treatment ratio versus control / TAG No 02, treatment ratio versus control / TAG No 07, treatment ratio versus control / Threonine, treatment ratio versus control / alpha-Tocopherol, treatment ratio versus control / Alanine, treatment ratio versus control / Campesterol, treatment ratio versus control / Glutamate, treatment ratio versus control / Glutamine, treatment ratio versus control / Lysophosphatidylcholine (C20:4), treatment ratio versus control / Malate, treatment ratio versus control / Ornithine, treatment ratio versus control / Phosphatidylcholine (C18:0, C22:6), treatment ratio versus control / Threonic acid, treatment ratio versus control: plasma
Procedure: A group of each 5 male and female rats was dosed once daily with the indicated compounds (see Table 4, below for compounds, applied doses and administration details) over 28 days.
Each dose group in the studies consisted of five rats per sex. Additional groups of each 5 male and female animals served as controls. Before starting the treatment period, animals, which were 62-64 days old when supplied, were acclimatized to the housing and environmental conditions for 7 days. All animals of the animal population were kept under the same constant temperature (20-24±3° C.) and the same constant humidity (30-70%). The animals of the animal population were fed ad libitum. The food to be used was essentially free of chemical or microbial contaminants. Drinking water was also offered ad libitum. Accordingly, the water was free of chemical and microbial contaminants as laid down in the European Drinking Water Directive 98/83/EG. The illumination period was 12 hours light followed by 12 hours darkness (12 hours light, from 6:00 to 18:00, and 12 hours darkness, from 18:00 to 6:00). The studies were performed in an AAALAC-approved laboratory in accordance with the German Animal Welfare Act and the European Council Directive 86/609/EE. The test system was arranged according to the OECD 407 guideline for the testing of chemicals for repeated dose 28-day oral toxicity study in rodents.
In the morning of day 7, 14, and 28, blood was taken from the retroorbital venous plexus from fasted anaesthetized animals. From each animal, 1 ml of blood was collected with EDTA as anticoagulant. The samples were centrifuged for generation of plasma. All plasma samples were covered with a N2 atmosphere and then stored at −80° C. until analysis.
For mass spectrometry-based metabolite profiling analyses plasma samples were extracted and a polar and a non-polar (lipid) fraction was obtained. For GC-MS analysis, the non-polar fraction was treated with methanol under acidic conditions to yield the fatty acid methyl esters. Both fractions were further derivatised with O-methyl-hydroxyamine hydrochloride and pyridine to convert Oxo-groups to O-methyloximes and subsequently with a silylating agent before analysis. In LC-MS analysis, both fractions were reconstituted in appropriate solvent mixtures. HPLC was performed by gradient elution on reversed phase separation columns.
Steroids and their metabolites were measured by online SPE-LC-MS (Solid phase extraction-LC-MS).
Following comprehensive analytical validation steps, the data for each analyte were normalized against data from pool samples. These samples were run in parallel through the whole process to account for process variability. The significance of treatment group values specific for sex, treatment duration and metabolite was determined by comparing means of the treated groups to the means of the respective untreated control groups using WELCH-test and quantified with treatment ratios versus control and p-values.

Structure (SMILES): CNC(=O)/C(=N/OC)c1ccccc1COc1cc(C)ccc1C [Dimoxystrobin, (E)-2-(methoxyimino)-N-methyl-2-[alpha-(2,5-xylyloxy)-o-tolyl]acetamide]
- Cholic acid, treatment ratio versus control (female rats, day 7): 70.58*
- Choline plasmalogen (C18,C20:4), treatment ratio versus control (female rats, day 7): 1.11
- Citrate, treatment ratio versus control (female rats, day 7): 1.22*
- Creatinine, treatment ratio versus control (female rats, day 7): 0.71
- DAG (C18:1,C18:2), treatment ratio versus control (female rats, day 7): 1.9*
- Hippuric acid, treatment ratio versus control (female rats, day 7): 0.85
- Indole-3-propionic acid, treatment ratio versus control (female rats, day 7): 1.53
- Methionine, treatment ratio versus control (female rats, day 7): 1.05
- Proline, treatment ratio versus control (female rats, day 7): 1.28*
- Serine, treatment ratio versus control (female rats, day 7): 1.5*
- TAG (C16:0,C18:1,C18:3), treatment ratio versus control (female rats, day 7): 4.14*
- TAG (C18:1,C18:2), treatment ratio versus control (female rats, day 7): 4.42*
- TAG (C18:2,C18:2), treatment ratio versus control (female rats, day 7): 5.1*
- TAG (C18:2,C18:3), treatment ratio versus control (female rats, day 7): 4.2*
- TAG (DAG-Fragment), treatment ratio versus control (female rats, day 7): 4.39*
- TAG No 02, treatment ratio versus control (female rats, day 7): 0.75*
- TAG No 07, treatment ratio versus control (female rats, day 7): 2.96*
- Threonine, treatment ratio versus control (female rats, day 7): 1.62*
- alpha-Tocopherol, treatment ratio versus control (female rats, day 7): 1.74*
- Cholic acid, treatment ratio versus control (female rats, day 14): 39.73*
- Choline plasmalogen (C18,C20:4), treatment ratio versus control (female rats, day 14): 1.13*
- Citrate, treatment ratio versus control (female rats, day 14): 1.17*
- Creatinine, treatment ratio versus control (female rats, day 14): 1.07
- DAG (C18:1,C18:2), treatment ratio versus control (female rats, day 14): 1.96*
- Hippuric acid, treatment ratio versus control (female rats, day 14): 0.51*
- Indole-3-propionic acid, treatment ratio versus control (female rats, day 14): 0.87
- Methionine, treatment ratio versus control (female rats, day 14): 1.18*
- Proline, treatment ratio versus control (female rats, day 14): 1.35*
- Serine, treatment ratio versus control (female rats, day 14): 1.66*
- TAG (C16:0,C18:1,C18:3), treatment ratio versus control (female rats, day 14): 3.15
- TAG (C18:1,C18:2), treatment ratio versus control (female rats, day 14): 3.71*
- TAG (C18:2,C18:2), treatment ratio versus control (female rats, day 14): 3.83*
- TAG (C18:2,C18:3), treatment ratio versus control (female rats, day 14): 2.76*
- TAG (DAG-Fragment), treatment ratio versus control (female rats, day 14): 4.43*
- TAG No 02, treatment ratio versus control (female rats, day 14): 0.73*
- TAG No 07, treatment ratio versus control (female rats, day 14): 1.7
- Threonine, treatment ratio versus control (female rats, day 14): 1.34*
- alpha-Tocopherol, treatment ratio versus control (female rats, day 14): 1.43*
- Cholic acid, treatment ratio versus control (female rats, day 28): 6.46*
- Choline plasmalogen (C18,C20:4), treatment ratio versus control (female rats, day 28): 1.11*
- Citrate, treatment ratio versus control (female rats, day 28): 1.21*
- Creatinine, treatment ratio versus control (female rats, day 28): 0.74
- DAG (C18:1,C18:2), treatment ratio versus control (female rats, day 28): 1.58*
- Hippuric acid, treatment ratio versus control (female rats, day 28): 0.29*
- Indole-3-propionic acid, treatment ratio versus control (female rats, day 28): 0.58*
- Methionine, treatment ratio versus control (female rats, day 28): 1.15*
- Proline, treatment ratio versus control (female rats, day 28): 1.25*
- Serine, treatment ratio versus control (female rats, day 28): 1.41*
- TAG (C16:0,C18:1,C18:3), treatment ratio versus control (female rats, day 28): 2
- TAG (C18:1,C18:2), treatment ratio versus control (female rats, day 28): 1.95
- TAG (C18:2,C18:2), treatment ratio versus control (female rats, day 28): 2.48*
- TAG (C18:2,C18:3), treatment ratio versus control (female rats, day 28): 2.26
- TAG (DAG-Fragment), treatment ratio versus control (female rats, day 28): 2.23*
- TAG No 02, treatment ratio versus control (female rats, day 28): 0.77*
- TAG No 07, treatment ratio versus control (female rats, day 28): 1.45
- Threonine, treatment ratio versus control (female rats, day 28): 1.23*
- alpha-Tocopherol, treatment ratio versus control (female rats, day 28): 1.32
- Alanine, treatment ratio versus control (male rats, day 7): 1.41*
- Campesterol, treatment ratio versus control (male rats, day 7): 1.13
- Citrate, treatment ratio versus control (male rats, day 7): 1.19*
- Creatinine, treatment ratio versus control (male rats, day 7): 0.95
- Glutamate, treatment ratio versus control (male rats, day 7): 0.93
- Glutamine, treatment ratio versus control (male rats, day 7): 0.79*
- Hippuric acid, treatment ratio versus control (male rats, day 7): 0.91
- Lysophosphatidylcholine (C20:4), treatment ratio versus control (male rats, day 7): 0.96
- Malate, treatment ratio versus control (male rats, day 7): 1.25*
- Methionine, treatment ratio versus control (male rats, day 7): 1.08*
- Ornithine, treatment ratio versus control (male rats, day 7): 1.19*
- Phosphatidylcholine (C18:0, C22:6), treatment ratio versus control (male rats, day 7): 1.12*
- Serine, treatment ratio versus control (male rats, day 7): 1.28*
- Threonic acid, treatment ratio versus control (male rats, day 7): 1.33*
- Threonine, treatment ratio versus control (male rats, day 7): 1.14
- Alanine, treatment ratio versus control (male rats, day 14): 1.59*
- Campesterol, treatment ratio versus control (male rats, day 14): 1.16
- Citrate, treatment ratio versus control (male rats, day 14): 1.32*
- Creatinine, treatment ratio versus control (male rats, day 14): 0.63*
- Glutamate, treatment ratio versus control (male rats, day 14): 0.74*
- Glutamine, treatment ratio versus control (male rats, day 14): 0.77*
- Hippuric acid, treatment ratio versus control (male rats, day 14): 0.48*
- Lysophosphatidylcholine (C20:4), treatment ratio versus control (male rats, day 14): 0.93*
- Malate, treatment ratio versus control (male rats, day 14): 1.16
- Methionine, treatment ratio versus control (male rats, day 14): 1.16*
- Ornithine, treatment ratio versus control (male rats, day 14): 1.52*
- Phosphatidylcholine (C18:0, C22:6), treatment ratio versus control (male rats, day 14): 1.47*
- Serine, treatment ratio versus control (male rats, day 14): 1.32*
- Threonic acid, treatment ratio versus control (male rats, day 14): 1.29*
- Threonine, treatment ratio versus control (male rats, day 14): 1.29*
- Alanine, treatment ratio versus control (male rats, day 28): 1.28*
- Campesterol, treatment ratio versus control (male rats, day 28): 0.59*
- Citrate, treatment ratio versus control (male rats, day 28): 1.57*
- Creatinine, treatment ratio versus control (male rats, day 28): 0.26*
- Glutamate, treatment ratio versus control (male rats, day 28): 0.78*
- Glutamine, treatment ratio versus control (male rats, day 28): 0.83*
- Hippuric acid, treatment ratio versus control (male rats, day 28): 1.43
- Lysophosphatidylcholine (C20:4), treatment ratio versus control (male rats, day 28): 1.03
- Malate, treatment ratio versus control (male rats, day 28): 0.86
- Methionine, treatment ratio versus control (male rats, day 28): 1.01
- Ornithine, treatment ratio versus control (male rats, day 28): 1.47*
- Phosphatidylcholine (C18:0, C22:6), treatment ratio versus control (male rats, day 28): 1.35*
- Serine, treatment ratio versus control (male rats, day 28): 1.29*
- Threonic acid, treatment ratio versus control (male rats, day 28): 1.46*
- Threonine, treatment ratio versus control (male rats, day 28): 1.21*
- capability of inducing an iron adsorption disorder (statement in words): capable of inducing an iron adsorption disorder
